Blank lines part the entries; values can stand above or below the molecule they belong to.
Tests used:
[1] = molecular target: Sodium-dependent serotonin transporter (Homo sapiens, UniProt P31645)
Description: Inhibition of SERT (unknown origin)

Acetylcholinesterase = Acetylcholinesterase (Homo sapiens, UniProt P22303)
Description: Inhibition of AChE (unknown origin)

Thromboxane-A synthase = molecular target: T1, Thromboxane-A synthase (Homo sapiens, UniProt P24557)
T1 sequence (P24557 whole entry): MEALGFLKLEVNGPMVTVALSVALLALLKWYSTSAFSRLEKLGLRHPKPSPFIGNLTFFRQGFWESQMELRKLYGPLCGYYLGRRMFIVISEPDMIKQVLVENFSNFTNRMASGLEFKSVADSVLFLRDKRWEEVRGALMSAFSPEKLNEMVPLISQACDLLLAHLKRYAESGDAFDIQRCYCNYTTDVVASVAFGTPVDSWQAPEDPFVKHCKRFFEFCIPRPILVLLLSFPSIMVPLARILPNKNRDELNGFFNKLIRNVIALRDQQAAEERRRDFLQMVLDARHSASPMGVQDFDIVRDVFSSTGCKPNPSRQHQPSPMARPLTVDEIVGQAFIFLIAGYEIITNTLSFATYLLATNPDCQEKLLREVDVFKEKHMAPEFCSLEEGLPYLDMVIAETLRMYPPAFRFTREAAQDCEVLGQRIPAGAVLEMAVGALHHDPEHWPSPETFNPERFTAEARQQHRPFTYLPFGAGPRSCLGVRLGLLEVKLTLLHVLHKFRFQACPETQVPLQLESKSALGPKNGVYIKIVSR
Description: Inhibition of TXA2 synthetase (unknown origin)

Vitamin D3 receptor = molecular target: T2, Vitamin D3 receptor (Homo sapiens, UniProt P11473)
T2 sequence (P11473 whole entry): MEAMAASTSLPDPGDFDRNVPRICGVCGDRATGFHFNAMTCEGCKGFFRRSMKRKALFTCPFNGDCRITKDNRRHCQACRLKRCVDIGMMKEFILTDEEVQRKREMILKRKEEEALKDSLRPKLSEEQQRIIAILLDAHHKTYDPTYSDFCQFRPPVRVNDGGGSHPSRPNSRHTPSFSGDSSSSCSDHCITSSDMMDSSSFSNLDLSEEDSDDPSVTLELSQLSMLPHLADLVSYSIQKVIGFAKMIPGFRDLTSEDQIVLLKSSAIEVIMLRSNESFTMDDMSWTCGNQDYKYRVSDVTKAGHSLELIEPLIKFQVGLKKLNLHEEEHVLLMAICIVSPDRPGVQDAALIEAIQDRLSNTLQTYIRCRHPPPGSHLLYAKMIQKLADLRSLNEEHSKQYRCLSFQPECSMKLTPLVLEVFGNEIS
Description: Inhibition of VDR (unknown origin)

[2] = molecular target: Voltage-dependent calcium channel subunit alpha-2/delta-1 (Homo sapiens, UniProt P54289)
Voltage-dependent calcium channel subunit alpha-2/delta-1, sequence (P54289 25-956 limits assumed): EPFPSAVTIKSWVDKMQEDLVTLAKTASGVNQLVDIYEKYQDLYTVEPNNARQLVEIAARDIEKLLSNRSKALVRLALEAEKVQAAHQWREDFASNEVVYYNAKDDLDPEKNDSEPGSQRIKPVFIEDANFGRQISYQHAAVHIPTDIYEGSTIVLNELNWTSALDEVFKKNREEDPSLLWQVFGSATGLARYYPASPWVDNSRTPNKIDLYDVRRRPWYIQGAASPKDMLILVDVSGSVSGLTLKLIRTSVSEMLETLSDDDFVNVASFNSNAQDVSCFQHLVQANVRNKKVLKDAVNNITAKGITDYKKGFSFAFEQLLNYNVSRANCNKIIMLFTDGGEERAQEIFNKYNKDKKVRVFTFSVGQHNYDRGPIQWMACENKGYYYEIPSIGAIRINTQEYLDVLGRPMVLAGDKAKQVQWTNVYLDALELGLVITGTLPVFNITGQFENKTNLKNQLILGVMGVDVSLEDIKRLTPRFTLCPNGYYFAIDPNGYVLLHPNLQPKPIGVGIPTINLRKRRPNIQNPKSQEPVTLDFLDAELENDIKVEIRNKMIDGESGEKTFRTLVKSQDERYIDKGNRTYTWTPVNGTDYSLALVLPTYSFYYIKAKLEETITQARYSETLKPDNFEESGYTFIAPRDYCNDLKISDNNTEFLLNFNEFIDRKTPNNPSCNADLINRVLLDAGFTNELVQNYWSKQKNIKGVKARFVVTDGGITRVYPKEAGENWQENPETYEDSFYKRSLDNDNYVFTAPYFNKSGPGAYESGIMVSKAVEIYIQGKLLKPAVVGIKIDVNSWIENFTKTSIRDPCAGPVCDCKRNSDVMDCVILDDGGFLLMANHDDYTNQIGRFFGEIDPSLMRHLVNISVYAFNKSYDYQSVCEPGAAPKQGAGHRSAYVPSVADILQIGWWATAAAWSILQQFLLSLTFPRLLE
Voltage-dependent calcium channel subunit alpha-2/delta-1, sequence (P54289 957-1103 limits assumed): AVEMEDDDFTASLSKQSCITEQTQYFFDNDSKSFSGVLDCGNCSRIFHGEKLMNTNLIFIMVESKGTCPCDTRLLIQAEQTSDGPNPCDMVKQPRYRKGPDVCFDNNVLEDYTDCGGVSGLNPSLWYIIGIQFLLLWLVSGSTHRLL
Description: Binding affinity to calcium channel alpha2delta1 (unknown origin)

[3] = molecular target: Amyloid-beta precursor protein (Homo sapiens, UniProt P05067)
Amyloid-beta precursor protein, sequence (P05067 whole entry): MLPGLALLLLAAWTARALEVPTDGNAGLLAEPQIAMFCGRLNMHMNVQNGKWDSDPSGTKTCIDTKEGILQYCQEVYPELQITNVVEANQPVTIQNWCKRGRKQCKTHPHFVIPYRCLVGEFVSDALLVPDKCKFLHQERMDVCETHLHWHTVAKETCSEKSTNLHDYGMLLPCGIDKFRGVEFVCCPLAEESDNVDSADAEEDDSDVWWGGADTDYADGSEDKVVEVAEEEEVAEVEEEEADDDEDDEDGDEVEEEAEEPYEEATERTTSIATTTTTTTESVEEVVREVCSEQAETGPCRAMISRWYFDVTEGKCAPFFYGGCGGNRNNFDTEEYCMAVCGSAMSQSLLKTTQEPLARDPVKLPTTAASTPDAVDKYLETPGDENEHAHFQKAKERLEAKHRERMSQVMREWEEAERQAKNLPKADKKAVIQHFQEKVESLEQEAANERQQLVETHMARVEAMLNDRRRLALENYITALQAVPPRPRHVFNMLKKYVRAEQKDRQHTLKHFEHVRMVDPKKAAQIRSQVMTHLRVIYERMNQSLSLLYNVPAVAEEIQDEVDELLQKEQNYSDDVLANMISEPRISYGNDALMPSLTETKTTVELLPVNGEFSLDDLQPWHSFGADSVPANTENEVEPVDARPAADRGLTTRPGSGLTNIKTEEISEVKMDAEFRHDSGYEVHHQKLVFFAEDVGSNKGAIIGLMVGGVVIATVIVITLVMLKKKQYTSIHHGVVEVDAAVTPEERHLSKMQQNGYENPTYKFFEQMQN
Description: Inhibition of amyloid beta (1 to 42 ) (unknown origin) self aggregation

Acetylcholinesterase, sequence (P22303 whole entry): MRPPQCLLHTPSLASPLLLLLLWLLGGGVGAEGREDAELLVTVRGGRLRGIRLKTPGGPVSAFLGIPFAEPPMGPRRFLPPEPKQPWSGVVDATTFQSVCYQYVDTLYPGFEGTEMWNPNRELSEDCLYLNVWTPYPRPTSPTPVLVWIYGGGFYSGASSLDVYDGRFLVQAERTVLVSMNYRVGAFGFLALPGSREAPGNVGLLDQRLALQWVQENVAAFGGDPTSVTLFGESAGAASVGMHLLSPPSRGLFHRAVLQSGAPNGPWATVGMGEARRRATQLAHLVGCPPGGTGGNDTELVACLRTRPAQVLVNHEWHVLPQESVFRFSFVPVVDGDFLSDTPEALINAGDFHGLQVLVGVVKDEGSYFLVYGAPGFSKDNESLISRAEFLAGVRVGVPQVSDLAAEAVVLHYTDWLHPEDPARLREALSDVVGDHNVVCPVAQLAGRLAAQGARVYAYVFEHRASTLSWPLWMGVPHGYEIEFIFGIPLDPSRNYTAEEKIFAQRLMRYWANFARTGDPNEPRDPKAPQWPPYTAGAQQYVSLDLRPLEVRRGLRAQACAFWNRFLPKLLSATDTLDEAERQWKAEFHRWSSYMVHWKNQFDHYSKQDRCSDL
Sodium-dependent serotonin transporter, sequence (P31645 whole entry): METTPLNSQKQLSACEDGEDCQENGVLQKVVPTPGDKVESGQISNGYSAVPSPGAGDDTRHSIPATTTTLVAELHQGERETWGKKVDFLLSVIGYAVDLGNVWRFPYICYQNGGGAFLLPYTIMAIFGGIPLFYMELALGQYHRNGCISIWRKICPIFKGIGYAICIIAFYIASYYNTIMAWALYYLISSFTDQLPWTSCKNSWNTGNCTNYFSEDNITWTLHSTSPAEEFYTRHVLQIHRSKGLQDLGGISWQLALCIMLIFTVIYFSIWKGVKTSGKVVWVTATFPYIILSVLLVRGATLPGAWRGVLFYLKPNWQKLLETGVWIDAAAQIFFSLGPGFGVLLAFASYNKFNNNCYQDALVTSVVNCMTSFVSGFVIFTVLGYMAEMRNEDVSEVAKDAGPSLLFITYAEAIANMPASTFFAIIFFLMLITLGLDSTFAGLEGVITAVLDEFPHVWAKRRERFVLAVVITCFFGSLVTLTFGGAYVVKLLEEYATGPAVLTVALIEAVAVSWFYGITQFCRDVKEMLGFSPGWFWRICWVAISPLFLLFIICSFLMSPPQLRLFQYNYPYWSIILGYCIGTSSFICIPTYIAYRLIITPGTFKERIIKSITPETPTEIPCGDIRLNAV

Compound: CCN(C)C(=O)Oc1ccc2c(c1)C=CC(C)N(C)C2CCOc1ccc([N+](=O)[O-])cc1 (stereo not given)
IC50 [1]: 6 nM | IC50 (Acetylcholinesterase): 14 nM

Compound: CCN(C)C(=O)Oc1ccc(C(CCOc2ccc([N+](=O)[O-])cc2)NC)cc1 (stereo not given)
IC50 [1]: 42 nM | IC50 (Acetylcholinesterase): 101 nM

Compound: CCNc1ncc2c(n1)N1CCCC1CN(c1cccc(-c3noc(C)n3)c1)C2=O (stereo not given)
Ki [2]: 11 nM

Compound: Cc1c(O)c(=O)ccn1-c1ccc(OCCCN2CCCC2)cc1
IC50 [3]: 2850 nM

Compound: CCN(CC)CCCOc1ccc(-c2oc3ccccc3c2C(=O)c2ccc(C)cc2)cc1
IC50 [3]: 56000 nM

Next, values leading:

IC50 (Thromboxane-A synthase): 4.7 nM
Compound: CCOC(=O)CCCCO/N=C(/c1cccnc1)c1cccc(CNS(=O)(=O)c2ccc(Cn3c(C)nc4ccccc43)cc2)c1

IC50 (Vitamin D3 receptor): 87 nM
Compound: CC(/C=C/C(=O)NO)=C\C(C)C1CCC2/C(=C/C=C3CC(O)CC(O)C3)CCCC21C (stereo not given)

IC50 (Thromboxane-A synthase): 500 nM
Compound: O=C(O)CCCCO/N=C(/c1cccnc1)c1cccc(C(F)(F)F)c1 [RIDOGREL]
